≈ marks a conversion by molar mass, not a printed value. Read-outs that look alike come from different tables or passages of the source.
What was measured:
[1] = In vitro cytotoxicity of PBMCs; format: cell-based; settings: male, human, peripheral blood mononuclear cells (PBMCs); 10 μM of belinostat
Experimental: The cutaneous T-cell lymphoma cell line (HuT-78) was purchased from the Bioresource Collection and Research Center (BCRC, Hsinchu, Taiwan). HuT-78 cells were incubated in 79% Iscove’s modified Dulbecco’s medium (IMDM) with 20% FBS and 1% liquid penicillin–streptomycin and kept in a humidified atmosphere containing 5% CO2 at 37 °C. HuT-78 cells were seeded on 96 well culture plates at a cell density of 1.5 × 10^5 cells per well. After overnight incubation, the medium was replaced with fresh medium containing belinostat free drug and belinostat-loaded liposomal formulations at final concentrations of 0.05, 0.1, 0.5, 1, 5 and 10 μM for 72 h. […] The absorbance was read at 450 nm by an enzyme-linked immunosorbent-assay reader (BioTek Epoch; Thermo Fisher Scientific, Waltham, MA, USA) to measure the quantity of surviving cells. IC50 was calculated using a four-parameter logistic function standard curve analysis of the dose response. The cell cytotoxicity was calculated using the following equation:(2) Cell viability %= ODsample−ODblank/ODcontrol−ODblank×100 % where OD denotes the optical density, ODcontrol represents 100% survival, and ODblank represents no cells.
Human peripheral blood mononuclear cells (PBMCs) were isolated from the peripheral blood from a healthy volunteer. […] After overnight incubation, the cytotoxicity assay was evaluated. […]

[2] = parameters: method as in PMID 26921086; settings: cited from earlier work
HuT-78 cells = experiment: Cell cytotoxicity (CCK-8) on HuT-78; format: cell-based; settings: Homo sapiens, HuT78; HuT-78, 72 h, CCK-8, n = 6
Experimental: The cutaneous T-cell lymphoma cell line (HuT-78) was purchased from the Bioresource Collection and Research Center (BCRC, Hsinchu, Taiwan). HuT-78 cells were incubated in 79% Iscove’s modified Dulbecco’s medium (IMDM) with 20% FBS and 1% liquid penicillin–streptomycin and kept in a humidified atmosphere containing 5% CO2 at 37 °C. HuT-78 cells were seeded on 96 well culture plates at a cell density of 1.5 × 10^5 cells per well. After overnight incubation, the medium was replaced with fresh medium containing belinostat free drug and belinostat-loaded liposomal formulations at final concentrations of 0.05, 0.1, 0.5, 1, 5 and 10 μM for 72 h. Cells were washed with PBS and reacted with 10 μL Cell Counting Kit-8 (CCK-8, Dojindo, Kumamoto, Japan) for 2 h. The absorbance was read at 450 nm by an enzyme-linked immunosorbent-assay reader (BioTek Epoch; Thermo Fisher Scientific, Waltham, MA, USA) to measure the quantity of surviving cells. IC50 was calculated using a four-parameter logistic function standard curve analysis of the dose response. The cell cytotoxicity was calculated using the following equation:(2) Cell viability %= ODsample−ODblank/ODcontrol−ODblank×100 % where OD denotes the optical density, ODcontrol represents 100% survival, and ODblank represents no cells.

[3] = pH 7.4; cited from earlier work
[4] = In vivo pharmacokinetics after subcutaneous administration; settings: Balb/c mice, single dose 0.333 mg/g
Experimental: The in vivo pharmacokinetic study was performed on healthy male BALB/c mice (weight: 16–20 g) obtained from the Laboratory Animal Center of the National Science Council, Taipei, Taiwan. All animal experiments were conducted in accordance with institutional guidelines and approved by the Animal Care and Use Committee of Kaohsiung Medical University, Kaohsiung, Taiwan (KMUIACUC-107146). All animals were starved overnight prior to the experiments.
BALB/c mice were anesthetized by halothane vapor with a vaporizer system. Mice were randomly divided into four groups, including the control group. Belinostat was dissolved in a mixture of 10% DMSO, 10% Cremophor EL, 80% water and a series of liposomal formulations (PC group, PS group, and PC/PS mixture group). It was then administered by subcutaneous injection with a dose of 0.33 mg/g. At time intervals of 5, 10 and 30 min and 1, 2, 3 and 4 h, 100 μL tail vein blood samples were collected in heparin-containing tubes (Vacutainer; BD, Franklin Lakes, NJ, USA) and immediately centrifuged at 3000× g for 10 min. The plasma was collected and stored at −20 °C. Mice were killed at the final time point and liver, spleen, lungs and kidneys were collected, washed with PBS and stored at −20 °C.
Plasma samples (40 μL) were mixed with 20 μL of internal standard solution (carbamazepine […]) and 1000 μL of methanol was added to induce protein precipitation. The mixture was centrifuged at 3000× g for 10 min and the supernatant was evaporated under vacuum for 2 h. The final dry residue was resuspended in methanol and analyzed by HPLC. Organs were homogenized in 1 mL PBS at 17,800 rpm for 30 s. Subsequently, following the same process, homogenized organs were mixed with internal standard solution and acetonitrile and analyzed by HPLC.
Correlation coefficients for the pharmacokinetic compartmental model were calculated and predicted using Phoenix WinNonlin V8.1 software (Certara, St. Louis, MO, USA). The area under the concentration–time curve (AUC0–∞) was calculated using the trapezoidal rule. Half-life (T½) and the clearance (Cl), volume of distribution (Vd), absorption rate (Ka) and elimination rate (Ke) were also calculated by software.

[5] = cited from earlier work
[6] = In vivo toxicity: complete blood count and liver function markers; settings: balb/c mice, subcutaneous, 0.333 mg/g, four hours after treatment
Experimental: BALB/c mice were administered with subcutaneous injections with doses of 0.33 mg/g of belinostat free drug and belinostat-loaded liposomal formulations. […] Blood was analyzed for number of erythrocytes, platelets (Plt) and total white blood cells using an automated blood analyzer (XT-1800i; Sysmex, Kobe, Japan). Hemoglobin, red blood cells and hepatic function were also analyzed. Reference values were obtained from Charles River Laboratory. ALT and AST were also evaluated.

[7] = In vitro release by dialysis method with fitting to release models; format: physicochemical
Experimental: An in vitro release study was performed using a dialysis method. Dialysis bags with a molecular-weight cutoff of 6000–8000 Da (pore size 1.8 nm; Orange Scientific, Braine-l’Alleud, Belgium) were soaked with distilled deionized water for 12 h before the experiment. Dialysis bags containing SN38-loaded liposomes, or SN38 solution, were subsequently incubated in flasks containing 15 mL medium (phosphate buffered saline/ethanol 1:1 v/v) in a 37 °C water bath. At appropriate intervals, 500 μL aliquots of the medium were withdrawn for analysis and immediately replaced with an equal volume of fresh medium. Release kinetics were investigated using different models, including zero-order, first-order and Higuchi kinetics. Correlation coefficients and each release equation were calculated from the respective plots.

In the case of O=C(/C=C/c1cccc(S(=O)(=O)Nc2ccccc2)c1)NO [belinostat, Belinostat], the viability at 72 h, 10 µM [1] is listed as 20%, the half-life [2] is listed as 1.1 h and the IC50 (HuT-78 cells) is listed as 1800 ± 160 nM. The Solubility [3] was 80 µg/mL (≈ 251 µM), the Cl ([4]; n = 3) was 404.50 ± 138.35 L/h/kg and the “Ka (absorption rate)” value ([4]; n = 3) was 5.06 ± 2.00 h⁻¹. For the same compound, the Vd ([4]; n = 3) was 1735.75 ± 414.86 L/kg, the AUC(0-inf) ([4]; male, mouse, plasma, sc, n = 3) was 17500 ± 5990 ng·h/mL and the Cmax ([4]; male, mouse, plasma, sc, n = 3) was 3390 ± 740 ng/mL. For the same compound, the Tmax ([4]; male, mouse, plasma, sc, n = 3) was 0.69 ± 0.31 h, the half-life ([4]; male, mouse, plasma, sc, n = 3) was 3.29 ± 1.84 h and the k el ([4]; male, mouse, plasma, sc, n = 3, read-out: Ke (elimination rate) (converted)) was 6.94e-05 s⁻¹. The “Patients with low platelet count” value [5] was 10–29%, the “Patients with low red blood cell counts” value ([5]; intravenous (IV) infusion over 30 min) was “more than 30%” and the ALT [6] was 125 ± 4.57 U/L. The Gra [6] was 13.47 ± 3.21%, the Hb [6] was 13.63 ± 2.16 g/dL and the Hct [6] was 39.58 ± 3.80%. The Lym [6] was 78.21 ± 6.56%, the Mon [6] was 10.95 ± 2.52% and the Plt count [6] was 230 ± 45.72 10^9/L. For the same compound, the RBC count [6] was 9.29 ± 1.28 10^12/L, the ST [6] was 290 ± 34.48 U/L and the WBC count [6] was 3.42 ± 0.67 10^9/L. The “Time until release completely exhausted” value [7] was ≤ 4 h and the Initial burst release ([7]; within 2 h) was 80%.
